16 compounds from ChEMBL document CHEMBL4828733, “Discovery and In Vivo Anti-inflammatory Activity Evaluation of a Novel Non-peptidyl Non-covalent Cathepsin C Inhibitor” (J Med Chem, 2021) can be followed below.

The nature of series [1]: Octanol/water partition coefficient, logP of compound at pH 7.4. The series is classed as physicochemical.
A short description of series [2]: Oral bioavailability in Sprague-Dawley rat at 10 mg/kg measured up to 24 hrs by LC-MS/MS analysis. The series is classed as ADME, organism-based. The settings on record: in vivo.
Series [3] is described as follows: Tmax in Sprague-Dawley rat at 10 mg/kg, po measured up to 24 hrs by LC-MS/MS analysis. The series is classed as ADME, organism-based. The settings on record: in vivo.
A short description of series [4]: AUC (0 to infinitive) in Sprague-Dawley rat at 10 mg/kg, po measured up to 24 hrs by LC-MS/MS analysis. The series is classed as ADME, organism-based. Details: route oral, dose 10 mg/kg, time <=24. The following applies: in vivo.
Series [5] in a line: Cmax in Sprague-Dawley rat at 1 mg/kg, ip measured up to 24 hrs by LC-MS/MS analysis. The series is classed as ADME, organism-based. More on the design: route intraperitoneal, dose 1 mg/kg, time <=24. The settings on record: in vivo.
Series [6] is described as follows: Cmax in Sprague-Dawley rat at 10 mg/kg, po measured up to 24 hrs by LC-MS/MS analysis. It is filed as ADME, organism-based. Details: route oral, dose 10 mg/kg, time <=24. The settings on record: in vivo.
Series [7] in a line: MRT in Sprague-Dawley rat at 10 mg/kg, po measured up to 24 hrs by LC-MS/MS analysis. The series is classed as ADME, organism-based. The following applies: in vivo.
Series [8] is described as follows: MRT in Sprague-Dawley rat at 1 mg/kg, ip measured up to 24 hrs by LC-MS/MS analysis. The series is classed as ADME, organism-based. The following applies: in vivo.
Series [9] can be described thus: AUC (0 to infinitive) in Sprague-Dawley rat at 1 mg/kg, ip measured up to 24 hrs by LC-MS/MS analysis. The series is classed as ADME, organism-based. More on the design: route intraperitoneal, dose 1 mg/kg, time <=24. The following applies: in vivo.
Series [10] in a line: Acute toxicity in ICR mouse assessed as mortality rate at 1500 mg/kg, po administered as single dose measured after 1 week relative to control. The series is classed as organism-based. The settings on record: in vivo, time 1 weeks, read-out: Activity.

As to `FC(F)(F)c1cccc(Nc2nc(Nc3ccc(-c4ccsc4)cn3)ncc2Cl)c1`, the logD (commonly the decadic logarithm of the distribution of all forms, ionised or not, between an organic phase and buffer at a given pH) in series [1] was found to be 2.03.
Compound `FC(F)(F)Oc1cccc(Nc2nc(Nc3ccccc3)ncc2Cl)c1` returned a logD in series [1] of 2.65.
On the same count and under the same terms, next, `CN1CCN(c2ccc(Nc3ncc(Cl)c(Nc4cccc(C(F)(F)F)c4)n3)nn2)CC1`: 1.26; `CCN1CCN(c2ccc(Nc3ncc(Cl)c(Nc4cccc(C(F)(F)F)c4)n3)nc2)CC1`: 2.18.
As for `CN1CCN(c2ccc(Nc3ncc(Cl)c(Nc4cccc(C(F)(F)F)c4)n3)nc2)CC1`, in series [2], the bioavailability (in general, the share of a dose that reaches the circulation, judged against a reference dose that is usually intravenous) was determined as 16.7%. In series [3], the Tmax (usually the time at which the peak concentration occurs) is 2 h. In addition, in series [4], the AUC(0-inf) (in general, the area under the concentration-time curve extrapolated to infinity) was determined as 158 ng·h/mL. The results for the Cmax in series [5] and in [6] were 458 ng/mL and 83.5 ng/mL, respectively. Moreover, in series [1], the logD is 1.87. Also, the MRT (in general, a mean duration of stay, worked out from the concentration-time curve) in series [7] came to 2.68 h; in series [8], 1.22 h. Moreover, in [9], the AUC (commonly concentration integrated over time) was found to be 249.2 ng·h/mL.
In [1], `CN1CCN(c2ncc(Nc3ncc(Cl)c(Nc4cccc(C(F)(F)F)c4)n3)cn2)CC1` showed a logD of 1.89.
On to `CN1CCN(c2ccc(Nc3ncc(Cl)c(Nc4cccc(C(F)(F)F)c4)n3)cc2)CC1`, for which the logD in [1] was 1.46.
`FC(F)(F)c1cccc(Nc2nc(Nc3ccccc3)ncc2Cl)c1` showed a logD in [1] of 2.46.
`FC(F)(F)c1cccc(Nc2nc(Nc3ccccn3)ncc2Cl)c1` registered a logD in series [1] of 1.4.
`CN(C)C1CCN(c2ccc(Nc3ncc(Cl)c(Nc4cccc(C(F)(F)F)c4)n3)nc2)CC1`: the mortality at 168 h in series [10] worked out at 70%. Further, the logD in [1] came out at 2.01.
In turn, `FC(F)(F)c1cccc(Nc2nc(Nc3ccc(N4CCNCC4)cn3)ncc2Cl)c1` returned a logD in series [1] of 1.25.
As for `NC1CCN(c2ccc(Nc3ncc(Cl)c(Nc4cccc(C(F)(F)F)c4)n3)nc2)CC1`, the logD in [1] was 0.44.
Compound `CN1CCN(c2ccc(Nc3ncc(Cl)c(Nc4cccc(C(F)(F)F)c4)n3)cn2)CC1` yielded a logD in [1] of 1.61.
Same read-out and setting: the result for `FC(F)(F)c1cccc(Nc2nc(Nc3cccnn3)ncc2Cl)c1` reads 2.26; that for `FC(F)(F)c1cccc(Nc2nc(Nc3cncnc3)ncc2Cl)c1`, 2.01.
`FC(F)(F)c1cccc(Nc2nc(Nc3cccnc3)ncc2Cl)c1` showed a logD in [1] of 1.26.
